Measurements taken from patent publication US20120058112A1, “ANTIBODIES” (priority 2009, published 2012).

Key:
NSCLC [1] = details: cancer no longer responding to chemotherapy; cited from earlier work
[2] = cited from earlier work
NSCLC [3] = details: phase II, previously treated NSCLC patients, 2004; cited from earlier work
NSCLC [4] = details: standard chemotherapy plus EGFR inhibitor; cited from earlier work
lung cancer cell lines = assay: Proliferation assay (Cyquant DNA content), adherent (2D) conditions; format: cell-based; details: adherent (2D) growth conditions
Method: Summary: To test the functional effect of inhibiting both EGFR & IGFIR signaling, the growth inhibition under adherent (2D) and non adherent (3D) conditions were evaluated. […] In order to test the effect of this combination under 3D non-adherent conditions, the inventors developed an ultra low attachment plate based proliferation assay.
Methods: Cells (˜3×10̂3) were seeded in adherent or non-adherent (ultra-low attachment plates; Corning) 96 well plates. […] The media and drugs were slowly replaced every 3 days and at the end of the assay (as indicated) plates were harvested and DNA content was measured using Cyquant assays as described by the manufacturer. The intrinsic growth was calculated based on the increase in DNA content from Day 1 to the end of the assay.

IGF1R = assay: Total IGF1R level in xenograft tumors (western blot / ELISA); format: in vivo, nu/nu mice
Method: (§1) Methods: Total protein (500 microgram) from xenograft samples was isolated at the end of the efficacy study (4 weeks after indicated doses). Samples from 6 independent tumors were analyzed for east treatment. The proteins were western blotted and visualized as described previously (See FIG. 2).

[5] = system: PI3K pathway (P-AKT, PS6K, PS6RP); assay: PI3K pathway western blot in xenograft tumors; design: species or system nu/nu mice; details: following MK-0646 treatment, previous in vivo data
Method: as §1

[6] = system: carcinoma which does not express the EGF receptor; details: mouse, in vivo; cited from earlier work
[7] = system: human mammary carcinoma which expresses EGFR; details: mouse, in vivo; cited from earlier work

C#Cc1cccc(Nc2ncnc3cc(OCCOC)c(OCCOC)cc23)c1.Cl [Erlotinib]
survival versus placebo (NSCLC [1]): about two months longer
overall survival benefit ([2]; in vivo): did not help patients live any longer overall
time to progression ([2]; placebo group 4.9 months): 5.1 months
median survival ([2]; placebo group 10.5 months): 10.6 months
participants whose tumors responded to treatment (NSCLC [3]): 12%
outcome versus chemotherapy alone (NSCLC [4]): did no better

MK-0646: humanized antibody that binds IGF-1R as well as the IR/IGF-1 hybrid receptor
growth inhibition (lung cancer cell lines): no significant growth inhibition
total levels of IGF1R (IGF1R; compared to vehicle or Erlotinib alone, FIG. 6): able to reduce the total levels of IGF1R
IGF1R receptor level (IGF1R; previous in vivo data, NCI-H2122 xenograft): down regulation
P13K pathway [5]: inhibition was also observed

O=CN/C=C/c1cc(O)ccc1O [erbstatin]
tumor growth [6]: without effect
tumor growth [7]: selectively attenuates the growth

COc1cc2ncnc(Nc3ccc(F)c(Cl)c3)c2cc1OCCCN1CCOCC1 [gefitinib]
outcome versus chemotherapy alone (NSCLC [4]): did no better
